Experimental data taken from US6780650B2 (priority 2000, dated 2004).
Read-outs that look alike come from different tables or passages of the source.

How the values were obtained:
hVR1 receptor [1] = molecular target: T1, hVR1 receptor (Homo sapiens, UniProt Q8NER1); format: binding; details: pH 8
T1 construct: expressed in transfected cells; host or cells: HEK 293 (HEK 293-hVR1, zeocin-selected); membranes

hVR1 receptor [2] = molecular target: T1, hVR1 receptor; format: binding; details: for Kd: read-out: Kd of [^3H]RTX binding to hVR1 receptor
hVR1 receptor [3] = molecular target: T1, hVR1 receptor; details: read-out: IC50, inhibition of [^3H]RTX binding to hVR1 receptor

T1 sequence (Q8NER1 whole entry): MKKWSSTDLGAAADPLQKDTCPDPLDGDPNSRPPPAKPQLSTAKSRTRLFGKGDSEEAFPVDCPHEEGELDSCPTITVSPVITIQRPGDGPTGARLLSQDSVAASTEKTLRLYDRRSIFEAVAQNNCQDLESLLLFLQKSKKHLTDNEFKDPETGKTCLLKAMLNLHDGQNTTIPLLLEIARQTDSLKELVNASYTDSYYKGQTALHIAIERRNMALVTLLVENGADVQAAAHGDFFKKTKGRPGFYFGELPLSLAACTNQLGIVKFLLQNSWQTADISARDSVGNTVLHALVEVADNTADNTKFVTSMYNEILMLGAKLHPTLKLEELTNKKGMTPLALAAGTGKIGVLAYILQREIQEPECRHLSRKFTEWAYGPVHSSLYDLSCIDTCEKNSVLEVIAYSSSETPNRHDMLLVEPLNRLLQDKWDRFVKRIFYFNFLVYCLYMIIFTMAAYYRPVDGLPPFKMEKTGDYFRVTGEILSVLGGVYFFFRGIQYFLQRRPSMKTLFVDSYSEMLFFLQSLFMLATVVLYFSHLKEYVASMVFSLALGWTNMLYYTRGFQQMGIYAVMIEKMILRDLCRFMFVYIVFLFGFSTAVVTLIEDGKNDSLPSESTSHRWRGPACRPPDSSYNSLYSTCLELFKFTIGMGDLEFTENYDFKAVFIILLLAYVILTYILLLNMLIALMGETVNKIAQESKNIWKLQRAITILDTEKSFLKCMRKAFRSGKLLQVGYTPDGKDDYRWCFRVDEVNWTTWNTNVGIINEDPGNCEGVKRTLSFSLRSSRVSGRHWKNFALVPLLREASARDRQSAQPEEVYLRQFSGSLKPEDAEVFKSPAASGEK

## O=C(O)CN(CCOCCOCCN(CC(=O)O)CC(=O)O)CC(=O)O [EGTA]
hVR1 receptor [1]
  inhibition of [^3H]RTX binding: 70%

## C=C(C)[C@]12C[C@@H](C)[C@@]34O[C@](Cc5ccccc5)(O[C@@H]1[C@@H]3C=C(COC(=O)Cc1ccc(O)c(OC)c1)C[C@]1(O)C(=O)C(C)=C[C@@H]41)O2 [[^3H]RTX, [^3H]resiniferatoxin]
hVR1 receptor [2]; pH 5.1
  Kd: 6.62 ± 5.58 nM
hVR1 receptor [2]; pH 7.4
  Bmax of [^3H]RTX binding to hVR1 receptor: 928 ± 53 fmol/mg protein
  Kd: 0.65 ± 0.12 nM
hVR1 receptor [2]; pH 8.6
  Bmax of [^3H]RTX binding to hVR1 receptor: 869 ± 41 fmol/mg protein
  Kd: 0.18 ± 0.04 nM
hVR1 receptor [2]; pH 9.6
  Bmax of [^3H]RTX binding to hVR1 receptor: 661 ± 127 fmol/mg protein
  Kd: 0.6 ± 0.31 nM

## C=C(C)[C@]12C[C@@H](C)[C@@]34O[C@](Cc5ccccc5)(O[C@@H]1[C@@H]3C=C(COC(=O)Cc1ccc(O)c(OC)c1)C[C@]1(O)C(=O)C(C)=C[C@@H]41)O2 [Resiniferatoxin]
hVR1 receptor [3]; pH 7.4
  IC50: 0.78 ± 0.15 nM
hVR1 receptor [3]; pH 8.6
  IC50: 0.25 ± 0.03 nM
